Source: US10376475B2, “Method of use” (Dermavant Sciences GmbH, priority 2014, dated 2019)
Where two headings read alike, the source gives them in different places.

Experiments:
P. acnes = assay: MIC against P. acnes on supplemented Brucella blood agar (CLSI); type: cell-based, Propionibacterium acnes
Method: Bacterial strains utilized to evaluate this concept of antibacterial synergy were the clinical isolates P. acnes 6601, 6602, AN24, 100372, and reference strain ATCC6919. These were received from the internal culture GSK collection held by the Infectious Disease CEDD at the Upper Providence site. Bacteria inocula were prepared, and the determination of the minimal inhibitory concentration (MIC) were conducted on supplemented Brucella blood agar as described for the CLSI guideline method (Bhate, K. et al. Brit. J. Derm. 168:474-485, 2013). Briefly, diluted antibacterials were added to tempered molten agar and aseptically poured into petri dishes and allowed to solidify. Following 24-hours incubation in an anaerobic environment bacterial colonies were suspended and adjusted for turbidity equivalent to a 0.5 MacFarland standard. One-two microliters of inoculums were placed on each antibiotic containing agar plate and allowed to absorb for 30 min. Plates were then inverted and incubated anaerobically for 48-72 hours before observation for growth. The lowest drug concentration which inhibited bacterial growth was designated as the MIC.

IL-17 = IL-17 secretion by pre-existing (differentiated) Th17 polarized cells after TCR stimulus
primary human cell types = assay: BioMAP Diversity Plus System profile comparison; settings: 148 phenotypic readouts, at one or more test concentration
IL-17A [1] = type: cell-based
[2] = test system: human immortalized sebocytes; assay: Sebocyte lipogenesis assay (14C-acetate); type: cell-based; settings: 10, 3, 1, 0.3 and 0.1 μM
Method: Briefly, human immortalized sebocytes (tsSV40 and hTERT) were seeded and allowed to grow to confluence in Sebocyte Growth Medium. Upon confluence, cells were transferred to […] to initiate Large T antigen degradation. Two days later, cells were stimulated with Sebocyte Labeling Medium containing 1 μM T0901317 and vehicle (DMSO) or compound 1. […] Next day, the media was replaced with Sebocyte Labeling Medium containing 1 μM T0901317 and original treatments or vehicle plus 1 μM insulin. 2 ul of 14C-acetate was added per well and the plate incubated for 4 hours. After 2 hours of incubation, 10 ul of CTB reagent was added per well for normalization. Incubation was continued for the remaining 2 hours and plates were read at Ex. 560 Em.590 for CTB signal. Cells were then washed, trypsinized and transferred to glass vials for lipid extraction. The results are expressed as % lipid production relative to control (LXR+Insulin group).
FIG. 4, the data represent % inhibition relative to control (LXR+Insulin group). Data are represented as Mean±SEM. Data are from 3 replicates.

[3] = test system: primary human keratinocytes; assay: Keratinocyte viability (annexin V / propidium iodide flow cytometry); type: cell-based; settings: 10 and 30 uM, 48 hours
Method: Keratinocyte hyperproliferation increases blockage and can promote comedome formation in acne. […] The ability of Compound 1 to induce apoptosis in primary keratinocytes may contribute to efficacy in acne patients.
Primary human keratinocytes were cultured in EpiLife medium containing HKGS growth supplement and seeded in tissue culture plates at 250,000 cells per plate. On the next day, the culture medium was removed and keratinocytes were then treated with culture medium containing vehicle control (DMSO) or increasing concentrations of Compound 1 (1, 10, 30 uM). After 48 hours of culture, keratinocytes were removed from tissue culture plates and cell viability was assessed by staining for apoptotic markers (annexin V and propidium iodide) using flow cytometry.

IL-17A [4] = assay: IL-17A protein secretion by peripheral blood CD4+ T cells cultured under Th17 polarizing conditions (Magpix); type: cell-based; settings: 5 days of culture, titrating doses
Method: To further understand the active dose range of compound 1-mediated suppression of Th17-associated cytokines, IL-17A protein secretion was examined in peripheral blood CD4+ T cells following 5 days of culture under Th17 polarizing conditions in the presence or absence of titrating doses of Compound 1 (FIG. 2). Supernatants were harvested at the end of the culture period and secreted protein was analyzed by Magpix (magnetic-based Luminex technology).

[5] = mouse ear edema; cited from earlier work

| Compound | MIC (P. acnes; Cutibacterium acnes, P. acnes reference strain ATCC6919, read-out: MIC) | MIC (P. acnes; Cutibacterium acnes, all P. acnes strains tested, read-out: MIC) | MIC (P. acnes; P. acnes strain 6601) | MIC (P. acnes; P. acnes strain 6602) | MIC (P. acnes; P. acnes strain 100372) | MIC (P. acnes; P. acnes strain AN24) | antibacterial activity against P. acnes (P. acnes; judgement based on MIC results) | reduction of IL-17 levels relative to stimulus alone (IL-17; 30 μM, 24 hours) | number of biomarkers modulated (primary human cell types) | suppression of IL-17 secretion (IL-17A [1]; 100 nM) | reduction of IL-17 (IL-17A [1]; 10 μM) | IL-17A mRNA expression (IL-17A [1]; normalized to PPIB, 5-day culture) | lipogenesis relative to control (LXR+Insulin group) [2] | lipogenesis relative to control (LXR+Insulin group) ([2]; listed as compound 1) | keratinocyte viability / cytotoxicity [3] | IL-17A protein levels (IL-17A [4]) | skin redness and thickness [5] | effect on IL-17 (IL-17; 30 μM) | effect on IL-17 (IL-17; lower concentrations (below 30 μM)) |
| --- | --- | --- | --- | --- | --- | --- | --- | --- | --- | --- | --- | --- | --- | --- | --- | --- | --- | --- | --- |
| CC(C)c1c(O)cc(/C=C/c2ccccc2)cc1O [Compound 1] | 128 µg/mL | 128 µg/mL | 128 µg/mL | 128 µg/mL | 128 µg/mL | 128 µg/mL | would not be considered to be active | 80-95% | more than 25 | more than 60% | approximately 80% | inhibited IL-17A mRNA expression in parallel and at the same potency as secretion of IL-17 protein | not active | trends towards increased lipogenesis | overtly cytotoxic | suppressed by compound 1 in a dose-dependent manner | dose dependent reduction in both skin redness and thickness |  |  |
| Oc1ccc(C=Cc2cc(O)cc(O)c2)cc1 [Resveratrol] |  |  |  |  |  |  |  |  |  |  |  |  |  |  |  |  |  | partial inhibition | enhancement |
